Assay results taken from the supplement of paper PMC10307832.

Assays:
Test in all cases: relative viability (nuclei count vs DMSO), 5 days (fraction); higher = more cells survive
[1] = compound: CC1=CC(=NN1)NC2=CC(=NC(=N2)/C=C/C3=CC=CC=C3)N4CCN(CC4)C + CCNC(=O)c1noc(-c2cc(C(C)C)c(O)cc2O)c1-c1ccc(CN2CCOCC2)cc1 [Luminespib] (partner 0.01 µM)
Summary of the method: (§1)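 After 5 days of treatment, lung cancer cells in 1536-well plates were fixed and stained in a single step (final 0.05% Triton X-100, 1% formaldehyde, 1 ug/ml Hoechst) and their nuclei counted on 4× images. Treatment had been applied by pin tool the day after seeding as one drug alone or as a fixed anchor-drug dose with five library-drug doses (not always all listed) in √10 steps. Relative viability is the nuclei count of treated wells divided by that of vehicle wells, and values are medians of duplicate plates.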

[2] = compound: COC1=CC(c2cc3ccccc3[nH]2)=N/C1=C\c1[nH]c(C)cc1C [Obatoclax] + COc1cc2c(Oc3ccc(NC(=O)C4(C(=O)Nc5ccc(F)cc5)CC4)cc3F)ccnc2cc1OCCCN1CCOCC1 [Foretinib] (partner 0.25 µM)
Summary of the method: as §1

[3] = compound: COC1=CC(c2cc3ccccc3[nH]2)=N/C1=C\c1[nH]c(C)cc1C [Obatoclax] + O=C(CCCCCCC(=O)Nc1ccccc1)NO [Vorinostat] (partner 1 µM)
Summary of the method: as §1

[4] = compound: CC1=CC(=NN1)NC2=CC(=NC(=N2)/C=C/C3=CC=CC=C3)N4CCN(CC4)C + Cc1nc(Nc2ncc(C(=O)Nc3c(C)cccc3Cl)s2)cc(N2CCN(CCO)CC2)n1 [Dasatinib] (partner 0.075 µM)
Summary of the method: as §1

Cell Line	relative viability ([1]; first compound 0.08 µM)	relative viability ([1]; first compound 0.253 µM)	relative viability ([1]; first compound 0.8 µM)	relative viability ([1]; first compound 2.53 µM)	relative viability ([1]; first compound 8 µM)	relative viability ([2]; first compound 0.01 µM)	relative viability ([2]; first compound 0.03162 µM)	relative viability ([2]; first compound 0.1 µM)	relative viability ([2]; first compound 0.3162 µM)	relative viability ([2]; first compound 1 µM)	relative viability ([3]; first compound 0.01 µM)	relative viability ([3]; first compound 0.03162 µM)	relative viability ([3]; first compound 0.1 µM)	relative viability ([3]; first compound 0.3162 µM)	relative viability ([3]; first compound 1 µM)	relative viability ([4]; first compound 0.08 µM)	relative viability ([4]; first compound 0.253 µM)	relative viability ([4]; first compound 0.8 µM)	relative viability ([4]; first compound 2.53 µM)	relative viability ([4]; first compound 8 µM)
NCI-H838	0.31	0.26	0.242	0.25	0.118	1.03	1.11	0.996	1.1	0.858	0.687	0.7	0.736	0.678	0.36	0.3	0.279	0.247	0.255	0.141
H3255	1.03	0.991	0.892	0.771	0.559	0.826	0.802	0.891	1.05	0.996	0.975	0.719		0.823	0.858	0.346	0.347	0.352	0.427	0.242
EPLC-272H	0.456	0.458	0.149	0.11	0.0775	0.735	0.577	0.769	0.619	0.499	0.567	0.561	0.399	0.175	0.176	0.344	0.37	0.37	0.15	0.217
NCI-H647	0.308	0.267	0.104	0.172	0.0506	1.14	1.04	1.12	0.935	0.476	0.667	0.523	0.652	0.304	0.161	0.185	0.186	0.2	0.0436	0.0226
SW 900	0.164	0.136	0.159	0.168	0.11	0.895	0.743	0.759	0.536	0.738	0.493	0.489	0.509	0.389	0.372	0.644	0.585	0.413	0.418	0.0713
LXF-289	0.658	0.755	0.672	0.33	0.104	0.91	0.988	1.05	0.932	1.02	0.714	0.725	0.798	0.775	0.601	0.258	0.26	0.187	0.0576	0.0234
NCI-H1650	0.19	0.184	0.206	0.203	0.183	1.12	1.06	1.18	0.91	0.558	0.494	0.661	0.61	0.417	0.301	0.376	0.288	0.37	0.125	0.0926
NCI-H1755	0.496	0.416	0.748	0.346	0.157	0.913	0.937	0.886	0.908	0.961	0.698	0.765	0.767	0.753	0.728	0.465	0.466	0.425	0.253	0.14
HCC-15	0.497	0.349	0.444	0.237	0.108	1.04	1.05	0.846	0.912	0.857	0.875	0.815	0.83	0.747	0.786	0.634	0.672	0.479	0.0991	0.0639
EMC-BAC-2	1.2	1.21	1.15	0.733	0.271	0.987	1.03	1.08	0.864	0.788	0.437	0.358		0.446	0.405	0.308	0.268	0.298	0.202	0.0961
NCI-H1734	0.178	0.236	0.163	0.145	0.109	0.81	0.863	0.9	0.785	0.628	0.819	0.887	0.814	0.741	0.31	0.4	0.454	0.464	0.257	0.111
NCI-H1395	0.782	0.687	0.699	0.401	0.293	0.938	0.702	0.929	1.01	0.766	0.996	0.643	0.642	0.635	0.596	0.424	0.409	0.4	0.344	0.28
HOP-62	0.953	0.966	0.888	0.849	0.35	1.16	0.933	1.11	1.04	1.06	0.573	0.575	0.639	0.741	0.403	0.605	0.72	0.772	0.355	0.197
LK-2	0.174	0.175	0.226	0.16	0.151	1.12	1.28	1.51	1.26	1.11	0.3	0.247	0.253	0.296	0.411	0.242	0.246	0.226	0.139	0.0998
SW 1573	0.421	0.259	0.179	0.105	0.0707	0.866	0.732	0.816	0.81	0.6	0.791	1.04	0.792	0.429	0.169	0.545	0.578	0.517	0.0958	0.0582
SK-LU-1	0.204	0.192	0.136	0.148	0.0748	0.775	0.855	0.804	0.409	0.357	0.833	0.827	0.723	0.671	0.441	0.174	0.171	0.156	0.108	0.0621
